{
  "source": "patent US10172916B2",
  "about": "“Methods of treating heart failure with agonists of hypocretin receptor 2” (The Board of Trustees of the Leland Stanford Junior …, priority 2013, dated 2019)",
  "test_system": "wild-type C57BL/6 mice stressed with angiotensin II+isoproterenol infusion (heart failure model)",
  "assay": "Orexin A minipump infusion in mice stressed with angiotensin II + isoproterenol, echocardiography",
  "type": "in vivo, mouse",
  "protocol": "Finally, to assess the potential of HCRTR2 as a novel therapeutic target for heart failure, wild-type mice were infused with saline (n=6) or the HCRTR2 agonist orexin A (n=7) for four weeks. At week two, all mice underwent infusion of angiotensin II and isoproterenol, neurohormones that mimic human heart failure. Echocardiography was performed blinded to drug infusion status at baseline, 2, 3 and 4 weeks (FIG. 3H).\nExperimental mice were anesthetized with 1.5% isoflurane by a facemask. The Alzet osmotic minipumps (Model 2002 or 2004) from the Alzet Corporation (Cupertino, Calif., USA) were implanted subcutaneously in the back of mice, posterior to the scapulae. 14-week-old C57BL/6 mice were treated with either saline or orexin A (50 μg/kg/day) infusions using an Alzet (Cupertino, Calif.) osmotic minipump model 2004 (200 μl reservoir, 28-day release at 0.25 μl/hr) for a total of 4 weeks. At week 2, all mice were treated with angiotensin II (1.4 mg/kg/day) plus isoproterenol (15 mg/kg/day) infusion using an additional Alzet osmotic minipump, model 2002 (200 μl reservoir, 14-day release at 0.5 μl/hr) for two weeks, starting 2 weeks after initiation of the saline or orexin A infusion. Mice had echocardiography performed at baseline and weeks 2, 3 and 4.\nFor noninvasive echocardiography, mice were anesthetized with isoflurane via nose cone (maintenance: 1.5% isoflurane mixed with 1 L/minute 100% medical oxygen to obtain heart rate of 450±50 beats per minute). Mouse body temperature was monitored with a rectal thermometer. […]\nTwo-dimensional imaging (B-mode) was used to obtain a view of left and right ventricular movement during diastole and systole along the parasternal short axis. […] Early (E) wave was measured as the peak velocity during filling of the ventricle, and atrial (A) wave was measured as the peak velocity during atrial contraction, at the end of diastole. […] All data and images were saved and analyzed using a Vevo 2100 advanced cardiovascular package software with a semi-automated quantification of cardiac function (V 1.4.0 VisualSonics, Toronto, ON, Canada).",
  "note": "Ends that are not written are not given here.",
  "data": [
    {"substance": "orexin A (QPLPDCCRQKTCSCRLYELLHGAGNHAAGILTL; ends and bridges not checked; cysteine pairing not given here; UniProt O43612 34-66, looked up) [HCRTR2 agonist]", "values": [
      {"measurement": "Ejection Fraction", "setting": "WT mice, orexin A 50 μg/kg/day infusion for 4 weeks, angiotensin II+isoproterenol during latter 2 weeks, week 4, n=7, p=0.045 vs saline", "result": 56.6, "unit": "%+/−4.5"},
      {"measurement": "heart function in a mouse model of heart failure", "setting": "summary statement", "result": "successful in rescuing heart function"},
      {"measurement": "systolic function compared to saline controls", "setting": "wild-type mice, four weeks infusion, angiotensin II and isoproterenol from week two, p=0.045", "result": "better systolic function compared to controls"}
    ]}
  ]
}
